Results from ChEMBL document CHEMBL1201862, “PubChem BioAssay data set” (2004).
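96-well plates; 48 h exposure; 5 concentrations. Endpoints by linear interpolation between flanking doses. Not reached: highest tested concentration assigned. GI50: concentration for 50% inhibition of growth.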 Calls of active or inactive are those of the source. Cut-off read from the data, not from the text of the source: active = GI50 up to about 1.1 µM and inactive = higher. Square brackets hold non-standard residues; d marks the D form. Peptide text beside a SMILES is read from it. * marks the point of attachment. X26 = COC1=CC(=O)N(C(=O)[C@@H](O*)C(C)C)[C@H]1Cc1ccccc1; NMeV = CN[C@H](C(=O)O)C(C)C; Hexanoyl = CCCCCC(=O)*

Experiments:
Test in all cases: NCI anticancer screen, dose series, 48 h
SNB-75 = tested on: SNB-75
COLO 205 = tested on: COLO 205
UO-31 = tested on: UO-31
NCI-H23 = tested on: NCI-H23
HOP-62 = tested on: HOP-62
UACC-62 = tested on: UACC-62
SK-OV-3 = tested on: SK-OV-3
MCF7 = tested on: MCF7
SF-268 = tested on: SF-268
MDA-N = tested on: MDA-N
LOX IMVI = tested on: LOX IMVI
A498 = tested on: A498
SN12C = tested on: SN12C
786-0 = tested on: 786-0
CAKI-1 = tested on: CAKI-1
OVCAR-4 = tested on: OVCAR-4
HT-29 = tested on: HT-29
TK-10 = tested on: TK-10
RXF 393 = tested on: RXF 393
KM12 = tested on: KM12

Measured: GI50

CCCCCC(=O)N[C@H](C(=O)N[C@H](C(=O)N(C)[C@H](C(=O)N1CCC[C@H]1C(=O)N1CCC[C@H]1C(=O)O[C@H](C(=O)N1C(=O)C=C(OC)[C@@H]1Cc1ccccc1)C(C)C)C(C)C)C(C)C)C(C)C (Hexanoyl-VV[NMeV]PP-X26)
inactive: SNB-75 19 µM | COLO 205 > 100 µM | UO-31 40 µM | NCI-H23 > 100 µM | HOP-62 > 100 µM | UACC-62 82.6 µM | SK-OV-3 > 100 µM | MCF7 59.2 µM | SF-268 > 100 µM | MDA-N 33.8 µM | LOX IMVI > 100 µM | A498 46.3 µM | SN12C 94.6 µM | 786-0 57.9 µM | CAKI-1 > 100 µM | OVCAR-4 > 100 µM | HT-29 > 100 µM | TK-10 > 100 µM | RXF 393 23.2 µM | KM12 > 100 µM

NCCCN1c2ccccc2Sc2ccc(Cl)cc21
inactive: SNB-75 > 6.98 µM | COLO 205 1.81 µM | UO-31 7.8 µM | NCI-H23 > 10 µM | HOP-62 > 10 µM | UACC-62 > 7.31 µM | SK-OV-3 > 6.56 µM | MCF7 1.76 µM | SF-268 8.17 µM | MDA-N 3.69 µM | LOX IMVI 3.29 µM | A498 > 10 µM | SN12C 6 µM | 786-0 3.24 µM | CAKI-1 > 8.24 µM | OVCAR-4 > 10 µM | HT-29 2.55 µM | TK-10 5.96 µM | RXF 393 > 7.28 µM | KM12 2.51 µM

CC(=O)OCC1OC(OC2CC3C(C)(C)C(O)CC[C@]3(C)C3CCC45CC4(CCC5[C@@H](C)CC(O)C(O)C(C)(C)O)[C@]23C)C(O)C(O)C1O (stereo not given in full)
inactive: SNB-75 > 10 µM | COLO 205 > 10 µM | UO-31 > 10 µM | NCI-H23 > 10 µM | HOP-62 > 10 µM | UACC-62 > 10 µM | SK-OV-3 > 10 µM | MCF7 > 10 µM | SF-268 > 10 µM | MDA-N > 10 µM | LOX IMVI > 10 µM | A498 > 10 µM | SN12C > 10 µM | 786-0 > 10 µM | CAKI-1 > 10 µM | OVCAR-4 > 10 µM | HT-29 > 10 µM | TK-10 > 10 µM | RXF 393 > 10 µM | KM12 > 10 µM

COc1ccc(/N=C\c2ccc(N(CCC#N)CCC#N)cc2)cc1
inactive: SNB-75 > 100 µM | COLO 205 44.2 µM | UO-31 44.5 µM | NCI-H23 > 100 µM | HOP-62 > 56.2 µM | UACC-62 16.6 µM | SK-OV-3 > 100 µM | MCF7 > 100 µM | SF-268 53.2 µM | MDA-N 63.8 µM | LOX IMVI > 28.9 µM | A498 > 100 µM | SN12C > 89.3 µM | 786-0 52.2 µM | CAKI-1 69.2 µM | OVCAR-4 > 86.1 µM | HT-29 > 67.6 µM | TK-10 64.1 µM | RXF 393 > 78.5 µM | KM12 17.1 µM

CC(N)/C(N)=N/O (stereo not given)
inactive: SNB-75 > 100 µM | COLO 205 > 100 µM | UO-31 > 100 µM | NCI-H23 > 100 µM | HOP-62 > 100 µM | UACC-62 > 100 µM | SK-OV-3 > 100 µM | MCF7 > 100 µM | SF-268 > 100 µM | MDA-N > 100 µM | LOX IMVI > 100 µM | A498 > 100 µM | SN12C > 100 µM | 786-0 > 100 µM | CAKI-1 > 100 µM | OVCAR-4 > 100 µM | HT-29 > 100 µM | TK-10 > 100 µM | RXF 393 > 100 µM | KM12 > 100 µM

COc1ccc2c(C)cc(N/N=C/c3ccc(C)s3)nc2c1
inactive: SNB-75 20.9 µM | COLO 205 2.81 µM | UO-31 13.6 µM | NCI-H23 12.3 µM | HOP-62 18.7 µM | UACC-62 20.1 µM | SK-OV-3 17 µM | MCF7 6.24 µM | SF-268 25.8 µM | MDA-N 10.4 µM | LOX IMVI 3.46 µM | A498 19.4 µM | SN12C 11.9 µM | 786-0 5.89 µM | CAKI-1 13.5 µM | OVCAR-4 11.1 µM | HT-29 3.21 µM | TK-10 19 µM | RXF 393 14.3 µM | KM12 5.18 µM

C=CCN1C[C@H](C)N([C@@H](c2ccc(C(=O)N3CCCCC3)cc2)c2cccc(OC)c2)C[C@H]1C
inactive: SNB-75 40 µM | COLO 205 16.6 µM | UO-31 24.4 µM | NCI-H23 42.4 µM | HOP-62 > 100 µM | UACC-62 21.5 µM | SK-OV-3 89.5 µM | MCF7 30.1 µM | SF-268 52.7 µM | MDA-N 34.5 µM | LOX IMVI 14.4 µM | A498 29.4 µM | SN12C 43 µM | 786-0 37.9 µM | CAKI-1 66.4 µM | OVCAR-4 56.4 µM | HT-29 24.7 µM | TK-10 40 µM | RXF 393 48 µM | KM12 36.9 µM

CCOC(=O)NC(C(=O)OCC)(N1CCN(c2cc3c(cc2F)c(=O)c(C(=O)O)cn3CC)CC1)C(F)(F)F (stereo not given)
inactive: SNB-75 > 100 µM | COLO 205 > 100 µM | UO-31 > 100 µM | NCI-H23 > 100 µM | HOP-62 > 100 µM | UACC-62 > 100 µM | SK-OV-3 > 100 µM | MCF7 > 100 µM | SF-268 > 100 µM | MDA-N > 100 µM | LOX IMVI > 100 µM | A498 > 100 µM | SN12C > 100 µM | 786-0 > 100 µM | CAKI-1 > 100 µM | OVCAR-4 > 100 µM | HT-29 > 100 µM | TK-10 > 100 µM | RXF 393 > 100 µM | KM12 > 100 µM
